Tested on: 782815-120-R-J1-PDC complex spheroid viability
Experiment: Anticancer human tumor 782815-120-R-J1-PDC patient-derived colon adenocarcinoma cell line growth inhibition [RAS]
Conditions: for IC50: curve of first compound; for viability, T/C: stronger effect = lower value
Outline: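 Agents were tested in combination matrices in half-log decrements from a top concentration at or near clinical Cmax (10 microM if undetermined). Targets were multi-cell spheroids of tumour lines plus HUVEC and MSC stromal cells.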

[1] = second compound 0.000949 µM, first compound 0.00316 µM
[2] = second compound 0.000949 µM, first compound 0.01 µM
[3] = second compound 0.000949 µM, first compound 0.0316 µM
[4] = second compound 0.000949 µM, first compound 0.1 µM
[5] = second compound 0.000949 µM, first compound 0.316 µM
[6] = second compound 0.000949 µM, first compound 1 µM
[7] = second compound 0.003 µM, first compound 0.00316 µM
[8] = second compound 0.003 µM, first compound 0.01 µM
[9] = second compound 0.003 µM, first compound 0.0316 µM
[10] = second compound 0.003 µM, first compound 0.1 µM
[11] = second compound 0.003 µM, first compound 0.316 µM
[12] = second compound 0.003 µM, first compound 1 µM
[13] = second compound 0.00949 µM, first compound 0.00316 µM
[14] = second compound 0.00949 µM, first compound 0.01 µM
[15] = second compound 0.00949 µM, first compound 0.0316 µM
[16] = second compound 0.00949 µM, first compound 0.1 µM
[17] = second compound 0.00949 µM, first compound 0.316 µM
[18] = second compound 0.00949 µM, first compound 1 µM
[19] = second compound 0.03 µM, first compound 0.00316 µM
[20] = second compound 0.03 µM, first compound 0.01 µM
[21] = second compound 0.03 µM, first compound 0.0316 µM
[22] = second compound 0.03 µM, first compound 0.1 µM
[23] = second compound 0.03 µM, first compound 0.316 µM
[24] = second compound 0.03 µM, first compound 1 µM
[25] = second compound 0.0949 µM, first compound 0.00316 µM
[26] = second compound 0.0949 µM, first compound 0.01 µM
[27] = second compound 0.0949 µM, first compound 0.0316 µM
[28] = second compound 0.0949 µM, first compound 0.1 µM
[29] = second compound 0.0949 µM, first compound 0.316 µM
[30] = second compound 0.0949 µM, first compound 1 µM
[31] = second compound 0.3 µM, first compound 0.00316 µM
[32] = second compound 0.3 µM, first compound 0.01 µM
[33] = second compound 0.3 µM, first compound 0.0316 µM
[34] = second compound 0.3 µM, first compound 0.1 µM
[35] = second compound 0.3 µM, first compound 0.316 µM
[36] = second compound 0.3 µM, first compound 1 µM
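Further: spheroids exposed to compounds for 7 days before reading.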
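Wherever viability, T/C is given: 100% = DMSO vehicle control viability.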

**Q.** What does the source list for `C=CC(=O)Nc1cc(Nc2nccc(-c3cn(C)c4ccccc34)n2)c(OC)cc1N(C)CCN(C)C` + CCn1c(-c2cc(N3CCN(C)CC3)cnc2C(C)OC)c2c3cc(ccc31)-c1csc(n1)CC(NC(=O)C1CC1C)C(=O)N1CCCC(N1)C(=O)OCC(C)(C)C2?
**A.** IC50 (second compound 0.000949 µM): > 1000 nM; IC50 (second compound 0.003 µM): > 1000 nM; IC50 (second compound 0.00949 µM): < 3.16 nM; IC50 (second compound 0.03 µM): < 3.16 nM; IC50 (second compound 0.0949 µM): < 3.16 nM; IC50 (second compound 0.3 µM): < 3.16 nM; viability, T/C [1]: 71.5%; viability, T/C [2]: 71.2%; viability, T/C [3]: 79%; viability, T/C [4]: 74%; viability, T/C [5]: 76.4%; viability, T/C [6]: 68.6%; viability, T/C [7]: 59.3%; viability, T/C [8]: 60.3%; viability, T/C [9]: 55.6%; viability, T/C [10]: 55.7%; viability, T/C [11]: 54.7%; viability, T/C [12]: 47.9%; viability, T/C [13]: 31.2%; viability, T/C [14]: 35.6%; viability, T/C [15]: 34.2%; viability, T/C [16]: 29.6%; viability, T/C [17]: 28.3%; viability, T/C [18]: 27.8%; viability, T/C [19]: 17.8%; viability, T/C [20]: 23.9%; viability, T/C [21]: 18.6%; viability, T/C [22]: 17.5%; viability, T/C [23]: 19.7%; viability, T/C [24]: 18.2%; viability, T/C [25]: 16.1%; viability, T/C [26]: 16.6%; viability, T/C [27]: 14.8%; viability, T/C [28]: 16.2%; viability, T/C [29]: 15.1%; viability, T/C [30]: 19.5%; viability, T/C [31]: 17.5%; viability, T/C [32]: 16.6%; viability, T/C [33]: 16.8%; viability, T/C [34]: 12.5%; viability, T/C [35]: 16.3%; viability, T/C [36]: 18.8%

**Q.** Which IC50 (second compound 0.0316 µM) does the source give for `Cc1nc(N2CCC3(CC2)COC(C)C3N)c(CO)nc1Sc1ccnc(N)c1Cl` (stereo unspecified) + C#Cc1c(F)ccc2cc(O)cc(-c3ncc4c(N5CC6CCC(C5)N6)nc(OCC56CCCN5CC(F)C6)nc4c3F)c12 here?
**A.** > 10000 nM

**Q.** What about the IC50 (second compound 0.1 µM) of the same compound?
**A.** > 10000 nM

**Q.** What about the IC50 (second compound 0.316 µM) of the same compound?
**A.** > 10000 nM

**Q.** What about the IC50 (second compound 1 µM) of the same compound?
**A.** > 10000 nM

**Q.** And the IC50 (second compound 3.16 µM)?
**A.** > 10000 nM

**Q.** And the IC50 (second compound 10 µM)?
**A.** > 10000 nM

**Q.** What about the viability, T/C (second compound 0.0316 µM, first compound 0.0316 µM) of the same compound?
**A.** 94.9%

**Q.** What about the viability, T/C (second compound 0.0316 µM, first compound 0.1 µM) of the same compound?
**A.** 99.1%

**Q.** What about the viability, T/C (second compound 0.0316 µM, first compound 0.316 µM) of the same compound?
**A.** 97.7%

**Q.** What about the viability, T/C (second compound 0.0316 µM, first compound 1 µM) of the same compound?
**A.** 90.2%

**Q.** What about the viability, T/C (second compound 0.0316 µM, first compound 3.16 µM) of the same compound?
**A.** 91.5%

**Q.** What about the viability, T/C (second compound 0.0316 µM, first compound 10 µM) of the same compound?
**A.** 95.2%

**Q.** What about the viability, T/C (second compound 0.1 µM, first compound 0.0316 µM) of the same compound?
**A.** 96%

**Q.** And the viability, T/C (second compound 0.1 µM, first compound 0.1 µM)?
**A.** 109%

**Q.** And the viability, T/C (second compound 0.1 µM, first compound 0.316 µM)?
**A.** 106%

**Q.** And the viability, T/C (second compound 0.1 µM, first compound 1 µM)?
**A.** 99.7%

**Q.** And the viability, T/C (second compound 0.1 µM, first compound 3.16 µM)?
**A.** 105%

**Q.** And the viability, T/C (second compound 0.1 µM, first compound 10 µM)?
**A.** 98.7%

**Q.** And the viability, T/C (second compound 0.316 µM, first compound 0.0316 µM)?
**A.** 104%

**Q.** And the viability, T/C (second compound 0.316 µM, first compound 0.1 µM)?
**A.** 102%

**Q.** What about the viability, T/C (second compound 0.316 µM, first compound 0.316 µM) of the same compound?
**A.** 91.9%

**Q.** And the viability, T/C (second compound 0.316 µM, first compound 1 µM)?
**A.** 94.7%

**Q.** And the viability, T/C (second compound 0.316 µM, first compound 3.16 µM)?
**A.** 92.1%

**Q.** What about the viability, T/C (second compound 0.316 µM, first compound 10 µM) of the same compound?
**A.** 99.7%

**Q.** What about the viability, T/C (second compound 1 µM, first compound 0.0316 µM) of the same compound?
**A.** 94.3%

**Q.** What about the viability, T/C (second compound 1 µM, first compound 0.1 µM) of the same compound?
**A.** 90.1%

**Q.** What about the viability, T/C (second compound 1 µM, first compound 0.316 µM) of the same compound?
**A.** 104%

**Q.** And the viability, T/C (second compound 1 µM, first compound 1 µM)?
**A.** 88.8%

**Q.** And the viability, T/C (second compound 1 µM, first compound 3.16 µM)?
**A.** 102%

**Q.** What about the viability, T/C (second compound 1 µM, first compound 10 µM) of the same compound?
**A.** 98.1%

**Q.** What about the viability, T/C (second compound 3.16 µM, first compound 0.0316 µM) of the same compound?
**A.** 99.3%

**Q.** And the viability, T/C (second compound 3.16 µM, first compound 0.1 µM)?
**A.** 96.8%

**Q.** And the viability, T/C (second compound 3.16 µM, first compound 0.316 µM)?
**A.** 86%

**Q.** What about the viability, T/C (second compound 3.16 µM, first compound 1 µM) of the same compound?
**A.** 93.6%

**Q.** And the viability, T/C (second compound 3.16 µM, first compound 3.16 µM)?
**A.** 97%

**Q.** And the viability, T/C (second compound 3.16 µM, first compound 10 µM)?
**A.** 92.9%

**Q.** And the viability, T/C (second compound 10 µM, first compound 0.0316 µM)?
**A.** 101%

**Q.** And the viability, T/C (second compound 10 µM, first compound 0.1 µM)?
**A.** 96.7%

**Q.** What about the viability, T/C (second compound 10 µM, first compound 0.316 µM) of the same compound?
**A.** 93.4%

**Q.** What about the viability, T/C (second compound 10 µM, first compound 1 µM) of the same compound?
**A.** 92.6%

**Q.** And the viability, T/C (second compound 10 µM, first compound 3.16 µM)?
**A.** 105%

**Q.** And the viability, T/C (second compound 10 µM, first compound 10 µM)?
**A.** 92.3%

**Q.** What does the source list for `O=C(c1ccc(F)c(F)c1Nc1ccc(I)cc1F)N1CC(O)([C@@H]2CCCCN2)C1` + CCn1c(-c2cc(N3CCN(C)CC3)cnc2C(C)OC)c2c3cc(ccc31)-c1csc(n1)CC(NC(=O)C1CC1C)C(=O)N1CCCC(N1)C(=O)OCC(C)(C)C2?
**A.** IC50 (second compound 0.000949 µM): 24.1 nM; IC50 (second compound 0.003 µM): 5.51 nM; IC50 (second compound 0.00949 µM): < 3.16 nM; IC50 (second compound 0.03 µM): < 3.16 nM; IC50 (second compound 0.0949 µM): < 3.16 nM; IC50 (second compound 0.3 µM): < 3.16 nM; viability, T/C [1]: 75.1%; viability, T/C [2]: 64.1%; viability, T/C [3]: 46.5%; viability, T/C [4]: 23.2%; viability, T/C [5]: 13%; viability, T/C [6]: 1.01%; viability, T/C [7]: 59.4%; viability, T/C [8]: 37.5%; viability, T/C [9]: 32.3%; viability, T/C [10]: 17.9%; viability, T/C [11]: 6.64%; viability, T/C [12]: 0.53%; viability, T/C [13]: 28.2%; viability, T/C [14]: 24.9%; viability, T/C [15]: 13.7%; viability, T/C [16]: 8.14%; viability, T/C [17]: 1.43%; viability, T/C [18]: 0.48%; viability, T/C [19]: 12.3%; viability, T/C [20]: 9.75%; viability, T/C [21]: 3.83%; viability, T/C [22]: 1.67%; viability, T/C [23]: 0.8%; viability, T/C [24]: 0.47%; viability, T/C [25]: 5.71%; viability, T/C [26]: 2.85%; viability, T/C [27]: 2.06%; viability, T/C [28]: 1.08%; viability, T/C [29]: 0.77%; viability, T/C [30]: 0.49%; viability, T/C [31]: 6.59%; viability, T/C [32]: 1.81%; viability, T/C [33]: 1.42%; viability, T/C [34]: 0.75%; viability, T/C [35]: 0.63%; viability, T/C [36]: 0.61%

Source: PubChem BioAssay AID2060887 (Molecular Pharmacology Branch, DTP, NCI, 2025)
